Active and inactive are the calls of the source. The rule behind the calls is not given here.
Molecular target: Ubiquitin carboxyl-terminal hydrolase isozyme L1 (Homo sapiens) (UniProt P09936)
Experiment: UCH-L1 deubiquitylase inhibitors, biochemical concentration-response, hit retest (AID 1645867)
Settings: recombinant UCHL1 deubiquitinase activity assay

Sequence of Ubiquitin carboxyl-terminal hydrolase isozyme L1 (Homo sapiens) (P09936 whole entry, looked up): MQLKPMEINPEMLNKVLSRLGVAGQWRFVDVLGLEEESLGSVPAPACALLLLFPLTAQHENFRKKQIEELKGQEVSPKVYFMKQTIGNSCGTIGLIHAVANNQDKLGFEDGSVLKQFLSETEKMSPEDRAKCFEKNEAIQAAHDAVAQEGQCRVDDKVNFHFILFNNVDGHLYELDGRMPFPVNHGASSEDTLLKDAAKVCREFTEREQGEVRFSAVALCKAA

| SMILES | IC50 |
| --- | --- |
| COc1cc(C2CC(=O)Nc3nc(-c4ccccc4)[nH]c(=O)c32)cc(OC)c1O (stereo not given) | > 25 µM (inactive) |
| Cc1ccc(C)c(NC(=O)Cn2cc(C(=O)C3CC3)c3ccccc32)c1 | > 25 µM (inactive) |
| COc1ccc2c(C)c(CC(=O)N3CCC[C@H]3C(=O)O)c(=O)oc2c1C | > 25 µM (inactive) |
| Cc1nc(-c2ccccc2)n(Cc2ccc(F)cc2)c(=O)c1CCO | > 25 µM (inactive) |
| Cc1nnc(-c2ccc3ccn(CC(=O)N4CCN(c5ccccc5)CC4)c3c2)o1 | > 25 µM (inactive) |
| CCC(C)Nc1ncnc2c1CN(C1CCCNCC1)C(=O)CN2C (stereo not given) | > 25 µM (inactive) |
| CSc1ncccc1C(=O)OCc1ccccc1 | > 25 µM (inactive) |
| Cc1ccc2[nH]c3c(=O)n(Cc4ccc(N(C)C)cc4)cnc3c2c1 | > 25 µM (inactive) |
| Cc1ccc(Cn2c(=O)c(C#N)c3n(c2=O)CCC3)cc1 | > 25 µM (inactive) |
| Cc1ccccc1CCNCc1c(C(=O)O)n(Cc2ccc(Cl)cc2)c2ccccc12 | > 25 µM (inactive) |
| Cc1ccc(Cn2c(C(=O)O)c(CNCc3cccnc3)c3ccccc32)cc1 | > 25 µM (inactive) |
| Cn1c(=O)c2ncnnc2n(C)c1=O | 16.3 µM |
| CCCn1c(=O)c(-c2ccc(C(=O)NCc3ccc(OC)cc3)cc2)nc2cccnc21 | > 25 µM (inactive) |
| Cc1ccc(C(=O)N[C@@H](Cc2ccccc2)C(=O)N2CCC3(CC2)NCCc2[nH]cnc23)cc1C | > 25 µM (inactive) |
| CSc1cccc(NC(=O)C2C3C=CC4(O3)C2C(=O)N(C2CCCCCC2)C4C(=O)NC2CCCCC2)c1 (stereo not given) | > 25 µM (inactive) |
| Nc1c(-c2nc(-c3ccccc3Cl)no2)nnn1-c1ccc(Cl)cc1 | > 25 µM (inactive) |
| CCOC(=O)c1ccc(Oc2sccc2[N+](=O)[O-])cc1 | > 25 µM (inactive) |
| Cc1nn(-c2ccc(Cl)cc2)c2[nH]c(=O)c(CNc3ccc4c(c3)OCCO4)cc12 | > 25 µM (inactive) |
| COc1cccc(CNc2ccc(-c3nc(-c4ccccc4)no3)nn2)c1 | > 25 µM (inactive) |
| O=C(CCSc1nnnn1-c1ccccc1)Nc1cc(C(F)(F)F)ccc1Cl | > 25 µM (inactive) |
| O=C(NCC(O)c1ccc([N+](=O)[O-])cc1)c1cccc(S(=O)(=O)N2CCOCC2)c1 (stereo not given) | > 25 µM (inactive) |
| O=C(COc1ccc(N2CC(C(=O)NCc3ccccc3)CC2=O)cc1)Nc1ccccc1Cl (stereo not given) | > 25 µM (inactive) |
| COc1ccc(-c2cc3nc([C@H](C)NC(=O)Cc4ccccc4C)nn3cn2)cc1 | > 25 µM (inactive) |

| SMILES | IC50 |
| --- | --- |
| CC1OC2CC(=O)OC2C2=C1C(=O)c1c(O)cccc1C2=O (stereo not given) | > 25 µM (inactive) |
| COc1c(O)cc(CC(=O)O)c(C(C)=O)c1O | 9.26 µM |
| Cc1ccc(S(=O)(=O)NCc2ccc(C(=O)NCCc3ccc(S(N)(=O)=O)cc3)cc2)cc1 | > 25 µM (inactive) |
| N#CCCN(C(=O)c1cc2c(s1)-c1ccccc1OC2)c1ccccc1 | > 25 µM (inactive) |
| Cc1ccc(-n2cc(-c3noc(C(=O)Nc4ccc(F)cc4C)n3)nn2)cc1 | > 25 µM (inactive) |
| O=C(NC1(O)C(=O)c2ccccc2C1=O)c1cccc2c1-c1ccccc1C2=O | 15.6 µM |
| O=C(Cn1nc2c3c4c(sc3ncn2c1=O)CCCCC4)Nc1ccc(Cl)cc1F | > 25 µM (inactive) |
| C=C1CCC2[C@](C)(CCC[C@]2(C)C(=O)OC)[C@H]1CCc1ccoc1/C=C/C(=O)O (stereo not given in full) | > 25 µM (inactive) |
| Cc1ccc(C2CC(=O)c3cnc(NCC4CCCO4)nc3C2)cc1 (stereo not given) | > 25 µM (inactive) |
| O=C(Nc1c(C(=O)N2CCCCCC2)oc2ccccc12)C1CCCCC1 | > 25 µM (inactive) |
| COc1ccc(C)cc1NC(=O)COc1ncnc2ccccc12 | > 25 µM (inactive) |
| O=C(CSc1nc2cc(C(F)(F)F)ccc2s1)NCC(=O)c1ccccc1 | > 25 µM (inactive) |
| CC(OC(=O)c1cccc(N(C)C)c1)C(=O)Nc1ncc(Cl)cc1Cl (stereo not given) | > 25 µM (inactive) |
| O=C(O)c1c(CNC2CCCCCC2)c2ccccc2n1Cc1ccc(F)cc1 | > 25 µM (inactive) |
| COc1ccc(Cl)cc1NC(=O)CSc1ncnc2nc[nH]c12 | > 25 µM (inactive) |
| COc1cn(-c2ccc(F)cc2)nc1C(=O)Nc1ccc(Cl)cc1Cl | 23.2 µM |
| COc1cccc(NC(=O)Cn2c3ccccc3n3c(=O)cc(-c4ccccc4)nc23)c1 | > 25 µM (inactive) |
| Cc1nc(-c2ccccn2)sc1C(=O)/C=C/c1ccccc1 | > 25 µM (inactive) |
| c1ccc(-n2nnc(-c3noc(-c4ccc[nH]4)n3)c2-c2ccncc2)cc1 | > 25 µM (inactive) |
| O=C(COc1ccc(Cl)cc1Cl)Nc1ccc2[nH]c(=O)[nH]c2c1 | > 25 µM (inactive) |
| Nc1cccc(C(=O)CC2(O)C(=O)N(Cc3ccc(Cl)cc3)c3ccccc32)c1 (stereo not given) | > 25 µM (inactive) |
| O=C1NC2(CCCc3ccccc32)C(=O)N1Cc1csc(-c2ccccc2)n1 (stereo not given) | > 25 µM (inactive) |

Source: PubChem BioAssay AID1645867 (Buhrlage Lab, Dana-Farber Cancer Institute and Novartis …, 2021)
